In one data set the test system is ACE. As to conditions: ref Marczak et al. (2003); cited from earlier work.
Data set [1] has as its system spontaneously hypertensive rats (SHR). Nature of the data set: Metabolic parameters in metabolic cages during chronic treatment. The data set is classed as in vivo, rat. As to conditions: mean ± SEM. As for the experimental part:
(§1) Systolic and diastolic blood pressure (SBP and DBP, respectively) and heart rate (HR) were measured in conscious unrestrained rats by telemetry technique, once a week for 24 h. 24 hour observations in metabolic cages (Tecniplast S. p.A. Buguggiate, Italy) were performed weekly. The diuresis, weight of feces, food and water intake were measured; urine and blood samples were collected on day 0, 7th and 14th, and were centrifuged at 1200 g (blood for 15 min and urine for 5 min), then the samples were stored at –80°C until analysis.
(§2) On day 0 all animals received saline (0.9% NaCl) and then, for 14 consecutive days, the substance tested. Chymostatin (CH, 2 mg/kg/day) was dissolved in DMSO and then diluted with PBS (final concentration of DMSO was 0.15%). Peptides RIY (7.5 mg/kg/day) and VWIS (12.5 mg/kg/day) were dissolved in saline (0.9% NaCl, S). The substances were administered through the femoral vein during 10 min in the volume of 0.5 ml to young SHR (infusion rate: 3 ml/h) and 1 ml to adult rats (infusion rate: 6 ml/h). Control rats received solvents (either DMSO or saline) in the same volume.
(§3) Urine volume was determined by gravimetric method. Sodium and potassium concentration in urine and plasma were measured by flame photometry (PFP7/C, Jenway Ltd, Stone, United Kingdom). Urine and plasma osmolality were measured by freezing point depression (Osmomat® 030 M, Gonotec, Berlin, Germany). These parameters were used to determine the excretion rates of total solutes (UosmV), sodium (UNaV) and potassium (UKV). Commercially available ELISA kits were used to measure nitric oxide metabolites (NOx, SunRed, Shanghai) and albumin (Albumin, ICL, Portland) concentration in urine. Excretion rate of NOx (UNOxV) and albumin (UAE) were calculated.

Data set [2] shares this test system. The data set can be described thus: Plasma and urine parameters during chronic treatment. The data set is classed as in vivo, rat. As to conditions: mean ± SEM. As for the experimental part: as §1, §2, §3
A further data set relates to adult SHR. The settings on record: tail cuff method, ref Kirimura et al. (2005); cited from earlier work. The text has this: [Kirimura et al. (2005)], studied NK3201, another chymase inhibitor. […] However, the study by [Kirimura et al. (2005)], in addition to the obvious difference in the protocol (single oral dose vs. our chronic intravenous infusion) has another limitation: the tail cuff method was used to measure blood pressure.

Another data set has as its target T1, Human chymase (Homo sapiens, UniProt P23946).
T1 sequence (P23946 22-247): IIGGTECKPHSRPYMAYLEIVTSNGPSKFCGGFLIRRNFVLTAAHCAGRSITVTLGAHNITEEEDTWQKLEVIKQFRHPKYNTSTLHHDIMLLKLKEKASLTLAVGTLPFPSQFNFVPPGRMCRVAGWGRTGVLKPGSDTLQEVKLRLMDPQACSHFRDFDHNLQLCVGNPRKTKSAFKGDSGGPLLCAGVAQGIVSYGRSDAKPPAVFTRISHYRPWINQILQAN
The settings on record: pH 7.8.

Setting [3] is: adult SHR (SHR-16), day 0 (baseline).
Where [4] appears, read: adult SHR (SHR-16), day 7 of daily iv CH 2, RIY 7.5, VWIS 12.5 mg/kg/day.
[5] abbreviates: adult SHR (SHR-16), day 7 of daily iv treatment.
The mark [6] stands for this setting: adult SHR (SHR-16), day 14 of daily iv CH 2, RIY 7.5, VWIS 12.5 mg/kg/day.
The mark [7] stands for this setting: adult SHR (SHR-16), day 14 of daily iv treatment.
Setting [8] is: young SHR (SHR-6), day 0 (baseline), CH n=8-10, RIY n=5, VWIS n=5-6.
Setting [9] is: young SHR (SHR-6), day 0 (baseline).
[10] abbreviates: young SHR (SHR-6), day 7 of daily iv CH 2, RIY 7.5, VWIS 12.5 mg/kg/day.
[11] abbreviates: young SHR (SHR-6), day 7 of daily iv treatment.
[12] abbreviates: young SHR (SHR-6), day 14 of daily iv CH 2, RIY 7.5, VWIS 12.5 mg/kg/day.
[13] abbreviates: young SHR (SHR-6), day 14 of daily iv treatment.

Where a SMILES comes first, the peptide text is derived from it. Where no end group is shown, it is not given here.

Procedure for Human chymase: Chymase digestion of ANG I in the presence of synthetized peptides was performed in vitro. The concentration of remaining ANG I was calculated in order to assess the ability of peptides to inhibit chymase.
Human chymase (72 units/mg protein; 259 µg protein/ml, vial volume 187 μl, Sigma) stock solution was prepared by diluting the initial sample of enzyme with Tris*HCl buffer (0.27 mM Tris*HCl, pH 7.8 and 150 mM NaCl) to obtain the final chymase concentration of 1.379 μg/ml.
Reactions (during which ANG I was converted to ANG II through removal of two C-terminal residues) were stopped at the desired times (0, 10, 20, 30, 40, 60, 80 min) by addition of 10 μl of 98% FA. […] Positive electrospray (ES+) was used as the ionization method for mass spectrometry.
The inhibitory effect of each peptide on chymase activity was expressed as remaining amount of substrate vs. time of digestion and presented as percentage ratio and calculated by the following formula [ANG It=X min/ANG It=0 min]x100% where ANG It=X min is the peak area of angiotensin I at desired time of digestion, ANG It=0 min is the peak area of angiotensin I at 0 min of digestion.

On to `CC[C@H](C)[C@H](NC(=O)[C@H](Cc1c[nH]c2ccccc12)NC(=O)[C@@H](N)C(C)C)C(=O)N[C@@H](CO)C(=O)O` [VWIS, Valine-Tryptophan-Isoleucine-Serine] (H-VWIS-OH), for which the “stability / conversion to dipeptide in the presence of ACE” value with ACE was “transformed rapidly to dipeptide VW”. In addition, the Body weight in data set [1] (adult SHR (SHR-16), day 0 (baseline), CH n=8, RIY n=5-6, VWIS n=5-6) came to 304 ± 8 g; in data set [1] (setting [4]), 312 ± 11 g; in data set [1] (setting [6]), 329 ± 11 g; in data set [1] (setting [8]), 110 ± 11 g; in data set [1] (setting [10]), 145 ± 13 g; in data set [1] (setting [12]) it was 174 ± 13 g. Also, the Diuresis in data set [1] (setting [3]) stood at 7.1 ± 1.4 µL/min; in data set [1] (setting [5]), 7.0 ± 1.3 µL/min; in data set [1] (setting [7]), 8.0 ± 1.8 µL/min; in data set [1] (setting [9]), 6.3 ± 0.8 µL/min; in data set [1] (setting [11]), 7.2 ± 0.7 µL/min; in data set [1] (setting [13]), 8.5 ± 0.8 µL/min. Besides, the Faeces came out at 11±1 g/24 h in data set [1] (setting [3]); 11±2 g/24 h in data set [1] (setting [5]); 11±1 g/24 h in data set [1] (setting [7]); 10±1 g/24 h in data set [1] (setting [9]); 13±1 g/24 h in data set [1] (setting [11]); 14±1 g/24 h in data set [1] (setting [13]). The Food intake in data set [1] (setting [3]) is 20±1 g/24 h; in data set [1] (setting [5]) it was 22±1 g/24 h; in data set [1] (setting [7]), 19±1 g/24 h; in data set [1] (setting [9]), 16±1 g/24 h; in data set [1] (setting [11]), 19±1 g/24 h; in data set [1] (setting [13]), 20±1 g/24 h. The Water intake was 30±1 g/24 h in data set [1] (setting [3]); 34±1 g/24 h in data set [1] (setting [5]); 32±2 g/24 h in data set [1] (setting [7]); 22±2 g/24 h in data set [1] (setting [9]); 32±7 g/24 h in data set [1] (setting [11]); 30±2 g/24 h in data set [1] (setting [13]). For the same molecule, the Plasma osmolality in data set [2] (adult SHR (SHR-16), day 0 (baseline), CH n=5-8, RIY n=5-6, VWIS n=5-6) is given as 313±1 mOsm/l; in data set [2] (setting [4]), 308±1 mOsm/l; in data set [2] (setting [6]), 302±2 mOsm/l; in data set [2] (setting [8]) it was 295±2 mOsm/l; in data set [2] (setting [10]), 297±1 mOsm/l; in data set [2] (setting [12]) it was 293±3 mOsm/l. Besides, the “Plasma K+ concentration” value in data set [2] (setting [3]) amounted to 4.20 ± 0.18 mmol/L; in data set [2] (setting [5]), 3.78 ± 0.31 mmol/L; in data set [2] (setting [7]), 3.96 ± 0.06 mmol/L; in data set [2] (setting [9]) it was 4.42 ± 0.20 mmol/L; in data set [2] (setting [11]), 4.45 ± 0.16 mmol/L; in data set [2] (setting [13]) it was 4.33 ± 0.14 mmol/L. Further, the “Plasma Na+ concentration” value came out at 133.0 ± 0.8 mmol/L in data set [2] (setting [3]); 130.2 ± 4.5 mmol/L in data set [2] (setting [5]); 135.8 ± 4.7 mmol/L in data set [2] (setting [7]); 131.8 ± 3.0 mmol/L in data set [2] (setting [9]); 133.40 ± 5.6 mmol/L in data set [2] (setting [11]); 131.4 ± 4.5 mmol/L in data set [2] (setting [13]). Also, the Potassium excretion came out at 0.97 ± 0.21 µmol/min in data set [2] (setting [3]); 1.26 ± 0.27 µmol/min in data set [2] (setting [5]); 0.95 ± 0.21 µmol/min in data set [2] (setting [7]); 0.73 ± 0.20 µmol/min in data set [2] (setting [9]); 1.75 ± 0.15 µmol/min in data set [2] (setting [11]); 0.72 ± 0.11 µmol/min in data set [2] (setting [13]). Also, the Sodium excretion was 0.90 ± 0.18 µmol/min in data set [2] (setting [3]); 1.02 ± 0.19 µmol/min in data set [2] (setting [5]); 0.81 ± 0.16 µmol/min in data set [2] (setting [7]); 0.69 ± 0.13 µmol/min in data set [2] (setting [9]); 0.84 ± 0.13 µmol/min in data set [2] (setting [11]); 0.63 ± 0.08 µmol/min in data set [2] (setting [13]). In addition, the Total solute excretion in data set [2] (setting [3]) was 7.52±1.54 µOsm/min; in data set [2] (setting [5]), 9.90±2.21 µOsm/min; in data set [2] (setting [7]), 10.42±2.06 µOsm/min; in data set [2] (setting [9]) it was 5.48±1.40 µOsm/min; in data set [2] (setting [11]), 7.11±0.95 µOsm/min; in data set [2] (setting [13]), 7.16±0.75 µOsm/min.
For `O=CNc1cnc(-c2ccccc2)n(CC(=O)NC(Cc2ccccc2)C(=O)C(=O)CCCOc2ccccn2)c1=O` (stereo not drawn) [NK3201], the “blood pressure after a single oral dose” value in the data set with adult SHR is given as “did not lower blood pressure”.
Consider DRVYIHPFHL [ANG I, angiotensin I], for which, on Human chymase, the “half-life time of ANG I (T1/2) in human chymase solution in absence of inhibitory peptides” value amounted to 16 min.

The values are drawn from article PMC8165439, “Chymase Dependent Pathway of Angiotensin II Generation and Rapeseed Derived Peptides for Antihypertensive Treatment of Spontaneously Hypertensive Rats” (Frontiers in Pharmacology, 2021).
